Laboratory results taken from patent publication US20160016951A1 (Merck Patent GmbH, priority 2014, published 2016).
Counter-ions that a name gives are not always drawn.

molecular target: T1, CDK8 (CDK8/CycC) (Homo sapiens, UniProt P49336); test: FRET based Lanthascreen binding competition assay; settings: not given
T1 construct: purchased Invitrogen PV4402
Experimental: FRET based Lanthascreen binding competition assay: A dye-labeled ATP competitive probe served as a FRET acceptor upon binding to CDK8 labeled with a strepavidin —Eu-chelate (via abiotinylated anti His antibody). […] In case this probe was competed by an inhibitor as such a signal cannot be generated any more. The CDK8 used for this assay was a protein co-expressed with CycC.
The assay procedure for an assay in a 1536 well plate was performed according to the following: 2 μL CDK8/biotin-anti-His Ab/SA-Eu mix in Assay buffer were pipetted into the wells of a micro plate.
1 μL compound in 20 mM Hepes buffer/5% DMSO was added. The plate was shaken for 30 sec and incubated for 20 min at RT. 2 μL Alexa647-probe in assay buffer were added. The plate was shaken for 30 sec again and incubated for 60 min at RT in the dark. Then the plate was read out on a Perkin Elmer Envision (mode LANCE/TRF, excitation 340 nm emission 650 nm).

T1 sequence (P49336 whole entry): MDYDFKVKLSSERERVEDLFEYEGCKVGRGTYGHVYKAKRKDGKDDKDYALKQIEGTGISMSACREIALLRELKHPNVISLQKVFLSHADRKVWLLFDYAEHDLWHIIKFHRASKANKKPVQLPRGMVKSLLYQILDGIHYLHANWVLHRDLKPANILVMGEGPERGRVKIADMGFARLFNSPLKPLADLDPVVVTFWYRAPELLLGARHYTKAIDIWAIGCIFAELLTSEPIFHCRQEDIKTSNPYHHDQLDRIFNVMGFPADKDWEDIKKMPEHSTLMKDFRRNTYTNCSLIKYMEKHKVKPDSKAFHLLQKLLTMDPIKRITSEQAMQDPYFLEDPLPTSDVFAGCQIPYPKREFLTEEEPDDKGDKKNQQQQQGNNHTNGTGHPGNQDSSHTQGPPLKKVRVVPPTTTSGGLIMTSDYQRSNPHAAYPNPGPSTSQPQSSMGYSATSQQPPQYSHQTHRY
T1 sequence (P24863 whole entry partner): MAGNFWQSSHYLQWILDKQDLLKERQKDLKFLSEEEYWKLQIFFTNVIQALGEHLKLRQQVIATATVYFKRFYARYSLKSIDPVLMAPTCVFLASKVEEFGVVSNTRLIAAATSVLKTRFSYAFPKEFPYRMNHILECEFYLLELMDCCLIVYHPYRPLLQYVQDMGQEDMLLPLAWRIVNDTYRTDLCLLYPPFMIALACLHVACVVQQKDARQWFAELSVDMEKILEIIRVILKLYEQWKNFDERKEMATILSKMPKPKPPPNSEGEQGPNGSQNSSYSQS

IC50 [nM]	Compound
< 10	Cn1cc(-c2ccc(-c3cncc4ccc(C(=O)O)cc34)cc2)cn1 [Compound 95, 4-(4-(1-methyl-1H-pyrazol-4-yl)phenyl)isoquinoline-6-carboxylic acid hydrochloride]

same assay, conditions: 5 nM CDK8/CycC, 10 nM Alexa647-Tracer, 1% DMSO, 60 min at RT; read-out: IC50 CDK8 binding

IC50 [nM]	Compound
< 10	COCCNc1ccc2cncc(-c3ccc(-c4cnn(C)c4)cc3)c2c1 [Compound 105, (2-Methoxy-ethyl)-{4-[4-(1-methyl-1H-pyrazol-4-yl)-phenyl]-isoquinolin-6-yl}-amine]
< 10	COC1CN(C(=O)c2ccc3cncc(-c4ccc5nn(CC(C)(C)O)cc5c4)c3n2)C1 [Compound 33, (8-(2-(2-hydroxy-2-methylpropyl)-2H-indazol-5-yl)-1,6-naphthyridin-2-yl)(3-methoxyazetidin-1-yl)methanone]
< 10	Cn1cc(-c2ccc(-c3cncc4ccc(NS(=O)(=O)N5CCC5)cc34)cc2)cn1 [Compound 169, Azetidine-1-sulfonic acid {4-[4-(1-methyl-1H-pyrazol-4-yl)-phenyl]-isoquinolin-6-yl}-amide]
101 to 500	Cn1cc(-c2ccc(-c3cncc4ccc(C(=O)N5CCC[C@H]5c5ccc(Cl)cc5)nc34)cc2)cn1 [Compound 67, (S)-(2-(4-chlorophenyl)pyrrolidin-1-yl)(8-(4-(1-methyl-1H-pyrazol-4-yl)phenyl)-1,6-naphthyridin-2-yl)methanone]
10 to 100	O=C(c1ccc2cnccc2n1)N1CCC[C@H]1c1ccc(Br)cc1 [Compound 84, (S)-(2-(4-bromophenyl)pyrrolidin-1-yl)(1,6-naphthyridin-2-yl)methanone]
101 to 500	CN1c2ccc(-c3cncc4ccc(CN)nc34)cc2CS1(=O)=O [Compound 71, C-[8-(1-Methyl-2,2-dioxo-2,3-dihydro-1H-benzo[c]isothiazol-5-yl)-[1,6]naphthyridin-2-yl]-methylamine]
10 to 100	COC1CN(C(=O)c2ccc3c(N)ncc(-c4ccc(-c5cnn(C(C)C)c5)cc4)c3n2)C1 [Compound 161, (5-amino-8-(4-(1-isopropyl-1H-pyrazol-4-yl)phenyl)-1,6-naphthyridin-2-yl)(3-methoxyazetidin-1-yl)methanone]
10 to 100	Cn1cc(-c2ccc(-c3cnc(N)c4ccc(C(=O)N5CCC(F)(F)C5)cc34)cc2)cn1 [Compound 196, (1-amino-4-(4-(1-methyl-1H-pyrazol-4-yl)phenyl)isoquinolin-6-yl)(3,3-difluoropyrrolidin-1-yl)methanone]
10 to 100	CN1c2ccc(-c3cncc4ccc(N5CCCC5=O)cc34)cc2CS1(=O)=O [Compound 129, 1-(4-(1-Methyl-2,2-dioxido-1,3-dihydrobenzo[c]isothiazol-5-yl)isoquinolin-6-yl)pyrrolidin-2-one]
10 to 100	CN1c2ccc(-c3cncc4ccc(-c5ncco5)cc34)cc2CS1(=O)=O [Compound 107, 1-methyl-5-(6-(oxazol-2-yl)isoquinolin-4-yl)-1,3-dihydrobenzo[c]isothiazole 2,2-dioxide]
< 10	O=C(c1ccc2cncc(-c3ccc4c(c3)CS(=O)(=O)N4)c2c1)N1CCC1 [Compound 192, azetidin-1-yl(4-(2,2-dioxido-1,3-dihydrobenzo[c]isothiazol-5-yl)isoquinolin-6-yl)methanone]
101 to 500	CN1c2ccc(-c3cnc(N)c4ccc(CO)nc34)cc2CS1(=O)=O [Compound 58, [5-Amino-8-(1-methyl-2,2-dioxo-2,3-dihydro-1H-benzo[c]isothiazol-5-yl)-[1,6]naphthyridin-2-yl]-methanol]
101 to 500	CNC(=O)c1ccc2c(O)ncc(-c3ccc4c(c3)CS(=O)(=O)N4)c2n1 [Compound 63, 8-(2,2-dioxido-1,3-dihydrobenzo[c]isothiazol-5-yl)-5-hydroxy-N-methyl-1,6-naphthyridine-2-carboxamide]
< 10	CC(C)(O)Cn1cc2cc(-c3cncc4ccc(NS(C)(=O)=O)cc34)ccc2n1 [Compound 151, N-(4-(2-(2-hydroxy-2-methylpropyl)-2H-indazol-5-yl)isoquinolin-6-yl)methanesulfonamide]
101 to 500	COC1CN(C(=O)c2ccc3c(N)ncc(-c4ccc(-c5ccn(C)n5)cc4)c3n2)C1 [Compound 160, (5-amino-8-(4-(1-methyl-1H-pyrazol-3-yl)phenyl)-1,6-naphthyridin-2-yl)(3-methoxyazetidin-1-yl)methanone]
< 10	CNC(=O)c1nc2c(-c3ccc4c(c3)CS(=O)(=O)N4C)cncc2cc1C [Compound 12, 3-Methyl-8-(1-methyl-2,2-dioxo-2,3-dihydro-1H-benzo[c]isothiazol-5-yl)-[1,6]naphthyridine-2-carboxylic acid methylamide]
10 to 100	Cn1cc(-c2ccc(-c3cncc4ccccc34)cc2)cn1 [Compound 109, 4-(4-(1-methyl-1H-pyrazol-4-yl)phenyl)isoquinoline]
10 to 100	Cc1cnc(N)c2ccc(C(=O)N3CCC[C@H]3c3ccc(Cl)cc3)nc12 [Compound 88, (S)-(5-amino-8-methyl-1,6-naphthyridin-2-yl)(2-(4-chlorophenyl)pyrrolidin-1-yl)methanone]

IC50 [nM]	Compound
< 10	Cn1cc(-c2ccc(-c3cncc4ccc(C(=O)N5CCC(F)(F)CC5)nc34)cc2)cn1 [Compound 35, (4,4-difluoropiperidin-1-yl)(8-(4-(1-methyl-1H-pyrazol-4-yl)phenyl)-1,6-naphthyridin-2-yl)methanone]
< 10	COC1(C)CN(C(=O)c2ccc3cncc(-c4ccc(-c5cnn(C)c5)cc4)c3n2)C1 [Compound 149, (3-methoxy-3-methylazetidin-1-yl)(8-(4-(1-methyl-1H-pyrazol-4-yl)phenyl)-1,6-naphthyridin-2-yl)methanone]
101 to 500	Cn1cc(-c2ccc(-c3cncc4ccc(C(=O)N5CCN(C(=O)OC(C)(C)C)CC5)cc34)cc2)cn1 [Compound 124, tert-butyl 4-(4-(4-(1-methyl-1H-pyrazol-4-yl)phenyl)isoquinoline-6-carbonyl)piperazine-1-carboxylate]
< 10	Cn1cc(-c2ccc(-c3cncc4ccc(C(N)=O)cc34)cc2)cn1 [Compound 96, 4-(4-(1-methyl-1H-pyrazol-4-yl)phenyl)isoquinoline-6-carboxamide]
501 to 1000	Cn1cc(-c2ccc(-c3cncc4ccc(N5CCNCC5)nc34)cc2)cn1 [Compound 72, 8-(4-(1-methyl-1H-pyrazol-4-yl)phenyl)-2-(piperazin-1-yl)-1,6-naphthyridine]
10 to 100	CC(=O)NCc1ccc2cncc(-c3ccc4c(c3)CS(=O)(=O)N4C)c2n1 [Compound 38, N-[8-(1-Methyl-2,2-dioxo-2,3-dihydro-1H-benzo[c]isothiazol-5-yl)-[1,6]naphthyridin-2-ylmethyl]-acetamide]
< 10	Cc1cncc2ccc(C(=O)N3CCC[C@H]3c3ccc(Cl)cc3)nc12 [Compound 83, (S)-(2-(4-chlorophenyl)pyrrolidin-1-yl)(8-methyl-1,6-naphthyridin-2-yl)methanone]
10 to 100	COC1CN(C(=O)c2ccc3cncc(-c4ccc5c(c4)CC(=O)N5C)c3c2)C1 [Compound 159, 5-[6-(3-Methoxy-azetidine-1-carbonyl)-isoquinolin-4-yl]-1-methyl-1,3-dihydro-indol-2-one]
10 to 100	O=C(c1ccc2cnccc2c1)N1CCC[C@H]1c1ccc(Cl)cc1 [Compound 113, (S)-(2-(4-chlorophenyl)pyrrolidin-1-yl)(isoquinolin-6-yl)methanone]
10 to 100	Cn1cc(-c2ccc(-c3cncc4ccc(S(C)(=N)=O)cc34)cc2)cn1 (stereo not shown) [Compound 190, 6-[imino(methane)sulfinyl]-4-[4-(1-methyl-1H-pyrazol-4-yl)phenyl]isoquinoline]
10 to 100	Nc1nccc2cc(C(=O)N3CCC[C@H]3c3ccc(Cl)cc3)ccc12 [Compound 137, (S)-(1-aminoisoquinolin-6-yl)(2-(4-chlorophenyl)pyrrolidin-1-yl)methanone]
10 to 100	CC(C)(O)Cn1cc(-c2ccc(-c3cncc4ccc(C(=O)N5CC(F)(F)C5)cc34)cc2)cn1 [Compound 136]
< 10	CC(C)S(=O)(=O)Nc1ccc2cncc(-c3ccc(-c4cnn(C)c4)cc3)c2c1 [Compound 157, Propane-2-sulfonic acid {4-[4-(1-methyl-1H-pyrazol-4-yl)-phenyl]-isoquinolin-6-yl}-amide]
< 10	Cn1cc(-c2ccc(-c3cncc4ccc(C(=O)N5CC(C)(F)C5)nc34)cc2)cn1 [Compound 180, (3-fluoro-3-methylazetidin-1-yl)(8-(4-(1-methyl-1H-pyrazol-4-yl)phenyl)-1,6-naphthyridin-2-yl)methanone]
< 10	CN1c2ccc(-c3cncc4ccccc34)cc2CS1(=O)=O [Compound 100, 5-(isoquinolin-4-yl)-1-methyl-1,3-dihydrobenzo[c]isothiazole 2,2-dioxide]
101 to 500	CC(=O)N1CCN(c2ccc3cncc(-c4ccc(-c5cnn(C)c5)cc4)c3c2)CC1 [Compound 125, 1-(4-{4-[4-(1-Methyl-1H-pyrazol-4-yl)-phenyl]-isoquinolin-6-yl}-piperazin-1-yl)-ethanone]
10 to 100	COC1CN(C(=O)c2ccc3c(N)ncc(-c4ccc5c(cnn5C)c4)c3n2)C1 [Compound 140, (5-amino-8-(1-methyl-1H-indazol-5-yl)-1,6-naphthyridin-2-yl)(3-methoxyazetidin-1-yl)methanone]
< 10	Cc1cc(-c2cnn(C)c2)ccc1-c1cncc2ccc(C(N)=O)nc12 [Compound 19, 8-(2-methyl-4-(1-methyl-1H-pyrazol-4-yl)phenyl)-1,6-naphthyridine-2-carboxamide]
